# Experimental data published in publication PMC10726358 (Journal of Medicinal Chemistry, 2023).
# Key:
# BET BD2 = conditions: cited from earlier work
# BRD4 BD1 [1] = format: binding, human; conditions: TR-FRET
# Description: (§1) As a strategic decision, every compound synthesized across all of GSK’s bromodomain research projects was tested in both a BRD4 BD1 and a BRD4 BD2 TR-FRET assay as part of tier 1 data generation. […] LipE is a straightforward, yet powerful metric for medicinal chemistry teams to normalize potency relative to lipophilicity, a critical factor both for parameters of the human dose equation and also for promiscuity.[43],[44] To aid interpretation, diagonal lines representing different LipE values are shown, with the most desirable space found toward the top left-hand area of the plot representing molecules with the comparatively highest potency per unit of lipophilicity.
# (§2) All TR-FRET and hWB cytokine assays have been described previously.[54]
# BRD4 BD2 = BRD4 BD2 TR-FRET assay; format: binding, human
# Description: as §1, §2
# [2] = Chromatographic LogD at pH 7.4; conditions: pH 7.4
# [3] = CLND kinetic aqueous solubility; conditions: aqueous (buffer not specified)
# MCP-1 = assay: LPS-stimulated human whole blood (hWB) MCP-1 release assay; format: cell-based; conditions: LPS-stimulated human whole blood; read-out: hWB MCP-1 pIC50 (converted)
# From the text: The utility of a chemical probe in target validation is directly related to its quality, with important publications detailing requirements to aid researchers.[36]−[38] […] It was accepted that selectivity would be judged initially through a mutant BRD4 TR-FRET assay and would likely shift depending on the protein construct and assay format. […] Previous studies have shown that BET BD1 inhibition is sufficient to inhibit in vitro production of MCP-1 in LPS-stimulated hWB and, as such, served as a relevant measure of cellular target engagement and, concomitantly, proof of cellular permeability.[12],[39] Selectivity over other human bromodomains outside of the BET family, known collectively as non-BET bromodomains, was also required,[40] with a ≥ 100-fold selectivity window targeted. To ensure the molecules remained within developable chemical space, a target property forecast index (PFI) as defined by chromLogDpH7.4 + number of aromatic rings ≤6 was set.[41]
# (§3) To understand cellular target engagement, 21 was tested in an LPS-stimulated hWB assay measuring inhibition of the inflammatory mediator MCP-1 secretion.
# as §2
# CAD aqueous solubility = assay: CAD aqueous solubility
# Description: as §3
# ChromatographicLogD at pH 7.4, artificial membrane permeability, CLND solubility, and CAD solubility were measured using published protocols.[55]
# BET BD1 = conditions: cited from earlier work
# BRD4 BD1 [4] = conditions: literature compound, no reference given; cited from earlier work
smiles,measurement,setting,value
CCNC(=O)c1cc2c(-c3cc(C(C)(C)O)ccc3Oc3c(C)cc(F)cc3C)cn(C)c(=O)c2[nH]1 [ABBV-744],BD2 selectivity over BET BD1,BET BD2,330 fold
COc1cc(OC)c2c(=O)[nH]c(-c3cc(C)c(OCCO)c(C)c3)nc2c1 [Apabetalone/RVX-208],BD2 selectivity over BET BD1,BET BD2,10 fold
"Cc1cc(-c2nc3ccccc3n2C[C@@H]2CCCNC2)cn(C)c1=O [Compound 19, (R)-1,3-Dimethyl-5-(1-(piperidin-3-ylmethyl)-1H-benzo[d]imidazole-2-yl)pyridin-2(1H)-one]",BRD4 BD1 FRET pIC50,BRD4 BD1 [1],6.2
same,fold selectivity (BRD4 BD1 over BRD4 BD2),BRD4 BD1 [1],16 fold
same,BRD4 BD2 FRET pIC50,BRD4 BD2,5.0
same,chromatographic logD,[2],0.7
same,solubility,[3],≥ 152 µg/mL
"Cc1cc(-c2nc3ccccc3n2C[C@@H]2CCCN(C(=O)C3CCN(CCF)CC3)C2)cn(C)c1=O [Compound 34, (S)-5-(1-((1-(1-(2-Fluoroethyl)piperidine-4-carbonyl)piperidin-3-yl)methyl)-1H-benzo[d]imidazole-2-yl)-1,3-dimethylpyridin-2(1H)-one]",BRD4 BD1 FRET pIC50,BRD4 BD1 [1],7.6
same,fold selectivity (BRD4 BD1 over BRD4 BD2),BRD4 BD1 [1],794 fold
same,BRD4 BD2 FRET pIC50,BRD4 BD2,4.7
same,IC50,MCP-1,63.1 nM
same,solubility,CAD aqueous solubility,≥ 207 µg/mL
same,pKa,pKa of the basic amine,7.3
same,chromatographic logD,[2],2.5
"Cc1cc(-c2nc3ccccc3n2C[C@@H]2CCCN(C(=O)C3CCN(CC(F)F)CC3)C2)cn(C)c1=O [Compound 35, (S)-5-(1-((1-(1-(2,2-Difluoroethyl)piperidine-4-carbonyl)piperidin-3-yl)methyl)-1H-benzo[d]imidazole-2-yl)-1,3-dimethylpyridin-2(1H)-one]",BRD4 BD1 FRET pIC50,BRD4 BD1 [1],6.7
same,fold selectivity (BRD4 BD1 over BRD4 BD2),BRD4 BD1 [1],100 fold
same,BRD4 BD2 FRET pIC50,BRD4 BD2,4.7
same,IC50,MCP-1,631 nM
same,solubility,CAD aqueous solubility,≥ 279 µg/mL
same,pKa,pKa of the basic amine,4.2
same,chromatographic logD,[2],3.2
COCc1nc2cnc3cc(-c4c(C)noc4C)c(OC[C@H]4CCNC4)cc3c2n1[C@H](C)c1ccccc1 [GSK778],IC50,BET BD1,< 100 nM
same,selectivity for BET BD1 over BET BD2,BET BD1,30–140 fold
COc1ccccc1S(=O)(=O)Nc1ccc2c3c(cc(-n4cnc(C)c4)nc13)C(=O)N2C [LT052],IC50,BRD4 BD1 [4],88 nM
same,selectivity for BRD4 BD1 over BRD4 BD2,BRD4 BD1 [4],138 fold
